The record followed here is ChEMBL document CHEMBL1130459, “Conformational preference of the 6-acetyl group in novel anticonvulsant trans 4S-benzamido-benzo[b]pyran-3R-ols” (Bioorg Med Chem Lett, 1997).

The species entered for assay [1] is Mus musculus. Description: Compound was evaluated for its binding affinity at the anticonvulsant binding site by displacement of [3H]- SB 204269 from mouse forebrain membranes. Details: species or system Brain, Membrane. Background: Displacement assays read how much labelled ligand stays bound in the presence of the test substance.
In assay [2] the test system is Mus musculus. Description: Compound was tested in vivo for anticonvulsant activity in mouse MEST test (maximal electroshock seizure threshold) at a peroral dose of 10 mg/kg. Particulars: route oral. Format: functional. On the technique in general: The maximal electroshock test induces tonic seizures with an electrical stimulus.
Assay [3] has as its system Mus musculus. Description: Compound was tested in vivo for anticonvulsant activity in mouse MEST test (maximal electroshock seizure threshold) at a peroral dose of 30 mg/kg. Format: functional. Particulars: route oral.

As for `CC(=O)c1ccc2c(c1C)[C@H](NC(=O)c1ccc(F)cc1)[C@@H](O)C(C)(C)O2`, the “Log Ki” value in assay [1] was -5.02. Compound `CC(=O)c1ccc2c(c1)[C@H](NC(=O)c1ccc(F)c(Cl)c1)[C@@H](O)C(C)(C)O2` gave an Activity in assay [2] of 138%. Further, the “Log Ki” value in assay [1] is recorded as -7.91.

`CC(=O)c1cc2c(cc1C)OC(C)(C)[C@H](O)[C@H]2NC(=O)c1ccc(F)cc1`: the “Log Ki” value in assay [1] was -6.15. Take `CC1(C)Oc2ccc3c(c2[C@H](NC(=O)c2ccc(F)cc2)[C@H]1O)CCCC3=O`: in assay [1], the “Log Ki” value was less than -5. Take `CC1(C)Oc2cc3c(cc2[C@H](NC(=O)c2ccc(F)c(Cl)c2)[C@H]1O)C(=O)CCC3`: the “Log Ki” value in assay [1] was -7.6. In assay [3], this compound showed an Activity of 98%. With `CC(=O)c1ccc2c(c1)[C@H](NC(=O)c1ccc(F)cc1)[C@@H](O)C(C)(C)O2` [CARABERSAT], in assay [1], the “Log Ki” value is given as -7.32.
